One data set deals with T1, Human AMPK α2β2γ1 (Homo sapiens, UniProt O43741+P54646).
T1 construct: The full length cDNAs of human AMPK β2 (NM_005399.3) and human AMPK α2 (NM_006252.3) were inserted; the full length cDNA of human AMPK γ1 (NM_002733.3) had been inserted into pET28b(+); 6xHis (N); made in house; host or cells: Escherichia coli BL21 CodonPlus (DE3)-RIL
Briefly: Test Example 2: evaluation of activators of AMP-activated protein kinase (mobility-shift assay, FL-Peptide 7). It is filed as biochemical. The conditions noted are these: human AMPK α2β2γ1 phosphorylated with CaMKK2; for EC150 (compound concentration showing 150% relative to the control (100%)): 25° C., 2 hours, 1% DMSO; for Emax: control = 100%, read-out: Emax (maximum rate of increase in activity within the measurement range). Here is the method:
The full length cDNAs of human AMPK β2 (NM_005399.3) and human AMPK α2 (NM_006252.3) were inserted into the MCS1 and MCS2 of the pETDuet-1 vector to prepare a human AMPK β2 and human AMPK α2 (6× His tag at the 5′ terminus) expressing plasmid. The plasmid was contransfected with an expression plasmid, in which the full length cDNA of human AMPK γ1 (NM_002733.3) had been inserted into pET28b(+), into BL21 CodonPlus (DE3)-RIL to obtain an expression strain. The expression strain was cultured in TB medium, followed by induction with 0.5 mM IPTG, and cultured at 25° C. for 3 hours and then harvested. After ultrasonication, supernatant was collected and applied to Histrap FF column (GE) and RESOUECE Q column (GE) to prepare 12.5 mg of purified sample containing three types of subunit from 1.8 L of broth.
An expression vector, in which the full length cDNA of human CAMKK β (NM_172226.1) had been inserted into pGEX-6P-3, was transfected into BL21 Star (DE3). The expression strain was cultured in TB medium, followed by induction with 0.5 mM IPTG, and cultured at 25° C. for 3 hours and then harvested. After ultrasonication, supernatant was collected and applied to GSTrap FF column (GE) to prepare 14 mg of GST-fused CAMKK […] from 720 ml of broth.
Thus, phosphorylation treatment was carried out as pretreatment.
Human AMPK α2β2γ1 in an amount to give a conversion rate of approximately 10% by reaction for 2 hours, and CaMKK2 in an amount capable of sufficiently imparting activity to AMPK for one hour were mixed in a buffer solution consisting of a 50 mM HEPES-NaOH buffer solution (pH 7.0), 100 mM NaCl, 5 mM magnesium chloride, 0.1% bovine serum albumin, 0.2 mM sodium orthovanadate(V), 1 mM ethylene glycol-bis(2-aminoethyl ether)-N,N,N′,N′-tetraacetic acid (EGTA), 5 mM disodium β-glycerophosphate, 1 mM dithiothreitol and 0.2 mM ATP, and the obtained liquid was left to stand at 25° C. for 1 to 1.5 hours to sufficiently phosphorylate AMPK.
After that, to the enzyme liquid, which had been subjected to phosphorylation treatment, a compound dissolved in DMSO was added so as to have a 1% DMSO concentration. The obtained liquid was left to stand for 10 minutes.
To the liquid, a substrate solution consisting of a 50 mM HEPES-NaOH buffer solution (pH 7.0), 100 mM NaCl, 10 mM magnesium chloride, 0.1% bovine serum albumin, 0.2 mM sodium orthovanadate(V), 1 mM ethylene glycol-bis(2-aminoethyl ether)-N,N,N′,N′-tetraacetic acid (EGTA), 5 mM disodium β-glycerophosphate, 2 mM dithiothreitol, 0.4 mM ATP and 3 μM FL-Peptide 7 (manufactured by Caliper Life Sciences, Inc.) was added in equal amount (10 μl in total). The obtained liquid was allowed to react at 25° C. for 2 hours, and 10 μl of 20 mM EDTA was then added thereto to stop the reaction.
To detect phosphorylated fluorescent substrates, the reaction liquid was applied to a measuring device, LabChip EZ Reader II manufactured by Caliper Life Science, Inc., for detecting fluorescence by using differences in mobility due to differences in charge. The setting conditions for the device were pressure, −1.5 PSI; upstream voltage, −2250 V; downstream voltage, −400 V; post sample buffer sip time, 40 seconds; final delay, 120 seconds; and peak order, Product First.
A conversion rate was calculated from the peak heights of the resulting substrate and product. The conversion rate when not containing a compound was used as a control, and a concentration dependent curve was made by plotting the rate of increase in activity to the control at each concentration of a compound. The compound concentration showing 150% relative to the control (100%) was used as the EC 150 value, and the maximum rate of increase in activity within the measurement range was used as Emax.

Structures are written as SMILES.

Usually Emax stands for the maximal effect, on the per cent scale that the assay sets.

T1 sequence (P54646 whole entry): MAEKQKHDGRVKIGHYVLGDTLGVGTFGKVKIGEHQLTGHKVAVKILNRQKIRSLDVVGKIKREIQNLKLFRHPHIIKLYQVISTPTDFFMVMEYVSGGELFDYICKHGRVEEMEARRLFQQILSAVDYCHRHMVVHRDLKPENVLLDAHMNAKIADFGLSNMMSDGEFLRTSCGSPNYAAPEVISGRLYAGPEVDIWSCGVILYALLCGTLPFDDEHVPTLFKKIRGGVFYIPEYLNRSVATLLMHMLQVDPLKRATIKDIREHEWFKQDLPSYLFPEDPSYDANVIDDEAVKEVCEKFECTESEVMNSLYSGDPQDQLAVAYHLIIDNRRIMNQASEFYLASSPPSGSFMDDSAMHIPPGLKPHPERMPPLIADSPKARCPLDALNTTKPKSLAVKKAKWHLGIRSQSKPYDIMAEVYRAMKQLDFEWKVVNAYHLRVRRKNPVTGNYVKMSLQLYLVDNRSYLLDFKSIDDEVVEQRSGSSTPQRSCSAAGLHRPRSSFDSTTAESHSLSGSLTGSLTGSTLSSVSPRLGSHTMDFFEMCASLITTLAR
T1 sequence (O43741 whole entry): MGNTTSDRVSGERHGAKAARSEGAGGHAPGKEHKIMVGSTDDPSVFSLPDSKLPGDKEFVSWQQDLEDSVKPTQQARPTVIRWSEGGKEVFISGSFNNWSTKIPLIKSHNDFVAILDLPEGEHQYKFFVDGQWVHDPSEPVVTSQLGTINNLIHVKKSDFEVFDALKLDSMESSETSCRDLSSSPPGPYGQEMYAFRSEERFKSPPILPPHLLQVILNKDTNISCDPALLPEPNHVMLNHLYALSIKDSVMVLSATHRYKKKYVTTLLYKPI
T1 sequence (P54619 whole entry partner): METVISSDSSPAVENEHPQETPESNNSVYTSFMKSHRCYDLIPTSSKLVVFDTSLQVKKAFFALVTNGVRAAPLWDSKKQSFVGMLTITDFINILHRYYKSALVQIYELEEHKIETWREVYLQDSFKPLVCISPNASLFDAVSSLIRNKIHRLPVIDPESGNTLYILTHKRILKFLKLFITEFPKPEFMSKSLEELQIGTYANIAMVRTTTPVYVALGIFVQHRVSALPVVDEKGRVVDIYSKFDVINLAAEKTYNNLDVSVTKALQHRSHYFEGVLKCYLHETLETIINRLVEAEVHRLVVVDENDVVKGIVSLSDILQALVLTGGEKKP

Consider `CC(C)(CO)C(=O)N1CCC(Oc2cc3nc(-c4ccc(N5CCOCC5)cc4)c(Cl)cc3[nH]2)CC1` [Compound I-3-28], for which, at Human AMPK α2β2γ1, the “EC150 (compound concentration showing 150% relative to the control (100%))” value worked out at 54 nM and the Emax turned out to be 510%. Consider `Cc1ccc(Oc2[nH]c3cc(Cl)c(-c4ccc(N5CCOCC5)cc4)cc3c2C#N)cc1C(=O)O` [Compound I-1-6], for which, on Human AMPK α2β2γ1, the “EC150 (compound concentration showing 150% relative to the control (100%))” value turned out to be 76 nM and the maximal effect (Emax) is 618%. With `CC(=O)NC1CC=C(c2ccc(-c3nc4cc(O[C@@H]5CO[C@H]6[C@@H]5OC[C@H]6O)[nH]c4cc3Cl)cc2)CC1` (stereo partly shown) [Compound I-3-46], on Human AMPK α2β2γ1, the “EC150 (compound concentration showing 150% relative to the control (100%))” value worked out at 0.48 nM and the maximal effect (Emax) is 750%. `O[C@@H]1CO[C@H]2[C@@H]1OC[C@H]2Oc1cc2nc(-c3c(F)cc(C4=CCOCC4)cc3F)ccc2[nH]1` [Compound I-3-32]: on Human AMPK α2β2γ1, the “EC150 (compound concentration showing 150% relative to the control (100%))” value is 2.6 nM and the Emax amounted to 661%. Turning to `O[C@@H]1CO[C@H]2[C@@H]1OC[C@H]2Oc1cc2nc(-c3ccc(N4CCOCC4)cc3)c(Cl)cc2[nH]1` [Compound I-3-15], on Human AMPK α2β2γ1, the “EC150 (compound concentration showing 150% relative to the control (100%))” value is recorded as 1.9 nM and the Emax was found to be 559%. With `N#Cc1c(O[C@@H]2CO[C@H]3[C@@H]2OC[C@H]3O)[nH]c2ccc(-c3c(F)cc(N4CC[C@@H](O)C4)cc3F)nc12` [Compound I-3-49], on Human AMPK α2β2γ1, the “EC150 (compound concentration showing 150% relative to the control (100%))” value amounted to 18 nM and the maximal response (Emax) turned out to be 848%. `Cc1ccc(Oc2cc3nc(-c4ccc(N5CCOCC5)cc4)c(Cl)cc3[nH]2)cc1C(=O)O` [Compound I-3-50]: at Human AMPK α2β2γ1, the “EC150 (compound concentration showing 150% relative to the control (100%))” value worked out at 63 nM and the Emax came out at 435%. In the case of `Cc1ccc(Oc2nc3nc(-c4ccc(N5CCOCC5)cc4)c(Cl)cc3[nH]2)cc1C(=O)O` [A−1, reference compound], at Human AMPK α2β2γ1, the “EC150 (compound concentration showing 150% relative to the control (100%))” value is 130 nM and the Emax was determined as 394%. `O=C(O)C1CC=C(c2ccc(-c3nc4cc(O[C@@H]5CO[C@H]6[C@@H]5OC[C@H]6O)[nH]c4cc3Cl)cc2)CC1` (stereo partly shown) [Compound I-3-21]: at Human AMPK α2β2γ1, the “EC150 (compound concentration showing 150% relative to the control (100%))” value is listed as 0.21 nM and the Emax turned out to be 787%. Taken in the same sequence, the figures for `O[C@@H]1CO[C@H]2[C@@H]1OC[C@H]2Oc1cc2nc(-c3c(F)cc(N4CCOCC4)cc3F)c(F)cc2[nH]1` [Compound I-3-24] were 8.8 nM and 729%. Taken in the same sequence, the figures for `N#Cc1c(O[C@@H]2CO[C@H]3[C@@H]2OC[C@H]3O)[nH]c2cc(Cl)c(-c3ccc(C4=CCN(C(=O)CO)CC4)cc3)cc12` [Compound I-1-9] were 20 nM and 559%.

Take `CC(=O)NC(C)(C)c1ccc(Oc2cc3nc(-c4c(F)cc(N5CCOCC5)cc4F)ccc3[nH]2)cc1` [Compound I-3-9]: on Human AMPK α2β2γ1, the “EC150 (compound concentration showing 150% relative to the control (100%))” value worked out at 39 nM and the Emax was found to be 446%. Turning to `O[C@@H]1CO[C@H]2[C@@H]1OC[C@H]2Oc1cc2nc(-c3ccc(-c4ccccc4)cc3)c(Cl)cc2[nH]1` [Compound I-3-18], at Human AMPK α2β2γ1, the “EC150 (compound concentration showing 150% relative to the control (100%))” value is given as 4.1 nM and the Emax stood at 489%. Consider `N#Cc1c(O[C@@H]2CO[C@H]3[C@@H]2OC[C@H]3O)[nH]c2ccc(-c3c(F)cc(C4=CCOCC4)cc3F)nc12` [Compound I-3-45], for which, on Human AMPK α2β2γ1, the “EC150 (compound concentration showing 150% relative to the control (100%))” value is on record as 26 nM and the maximal response (Emax) worked out at 694%. Turning to `CC(C)(C(=O)O)[C@H]1CC[C@H](Oc2cc3nc(-c4ccc(N5CCOCC5)cc4)c(Cl)cc3[nH]2)CC1` [Compound I-3-22], at Human AMPK α2β2γ1, the “EC150 (compound concentration showing 150% relative to the control (100%))” value was 120 nM and the Emax turned out to be 264%.

As for `N#Cc1cc2[nH]c(O[C@@H]3CO[C@H]4[C@@H]3OC[C@H]4O)c(C#N)c2cc1-c1ccc(N2CCOCC2)cc1` [Compound I-2-17], on Human AMPK α2β2γ1, the “EC150 (compound concentration showing 150% relative to the control (100%))” value turned out to be 98 nM and the Emax was determined as 587%. On to `CS(=O)(=O)NC1CC=C(c2ccc(-c3nc4cc(O[C@@H]5CO[C@H]6[C@@H]5OC[C@H]6O)[nH]c4cc3Cl)cc2)CC1` (stereo partly shown) [Compound I-3-47], for which, at Human AMPK α2β2γ1, the “EC150 (compound concentration showing 150% relative to the control (100%))” value was found to be 0.76 nM and the Emax was found to be 727%.

As for `CC(=O)NC/C=C/c1ccc(-c2cc3c(C#N)c(O[C@@H]4CO[C@H]5[C@@H]4OC[C@H]5O)[nH]c3cc2Cl)cc1` [Compound I-2-9], at Human AMPK α2β2γ1, the “EC150 (compound concentration showing 150% relative to the control (100%))” value is listed as 34 nM and the Emax was determined as 503%. As for `Clc1cc2[nH]c(O[C@@H]3CO[C@@H]4CCO[C@@H]43)cc2nc1-c1ccc(N2CCOCC2)cc1` [Compound I-3-37], in “Phototoxicity test”, the phototoxicity test entry is “negative”.

Regarding `CC(C)(CO)C(=O)N1CCC(Oc2cc3nc(-c4ccc(C5=CCC(C(=O)O)CC5)cc4)c(Cl)cc3[nH]2)CC1` (stereo not shown) [Compound I-3-38], the maximal effect (Emax) at Human AMPK α2β2γ1 worked out at 560%. `N#Cc1c(O[C@@H]2CO[C@H]3[C@@H]2OC[C@H]3O)[nH]c2cc(Cl)c(-c3ccc(C4=CCC(C(=O)O)CC4)cc3)cc12` (stereo partly shown) [Compound I-1-8]: on Human AMPK α2β2γ1, the “EC150 (compound concentration showing 150% relative to the control (100%))” value is 39 nM and the Emax worked out at 580%.

For the origin of these results see patent US9890119B2, “Indole and azaindole derivative having AMPK-activating activity” (SHIONOGI & CO., LTD., priority 2013, dated 2018).
